# Results reported in PMC3748009, “Novel Small-Molecule AMP-Activated Protein Kinase Allosteric Activator with Beneficial Effects in db/db Mice” (PLoS ONE, 2013).
# What was measured:
# L6 myotubes [1] = experiment: Adenine nucleotide measurement (ADP/ATP ratio) in L6 myotubes; format: cell-based; conditions: various concentrations, 3 hr, vs DMSO
# Excerpt: (§1) These assays were described previously, [25].
# [2] = target: T1, recombinant human AMPK α1β2γ1 (Homo sapiens, UniProt Q13131); experiment: Scintillation proximity assay (SPA), AMPK activation; format: biochemical
# T1 construct: made in house
# Protocol: Before the SPA assay, 200 nmol/l recombinant AMPK protein (α1β1γ1, α2β1γ1, α1β2γ1, α2β2γ1, α1(1–394), α1(1–335), α1(1–312)) was constructed, expressed, purified and fully phosphorylated as described previously. The SPA reactions were performed in 96-well plates in a final volume of 50 µl containing 20 mmol/l Tris-HCl, pH 7.5, 5 mmol/l MgCl2, 1 mmol/l DTT, 2 µmol/l biotin-SAMS, 2 µmol/l ATP and 7.4×10^3 Bq/well [γ-^33P]ATP. The reactions were initiated by the addition of 50 nmol/l recombinant AMPK protein to the reaction solutions, followed by incubation at 30°C for 2 hr. The reactions were then terminated by the addition of 40 µl of stop solution containing 80 µg streptavidin-coated SPA beads per well, 50 mmol/l EDTA and 0.1% Triton X-100 in PBS, pH 7.5, followed by incubation for 1 hr. Finally, 160 µl of suspension solution containing 2.4 mol/l CsCl, 50 mmol/l EDTA and 0.1% Triton X-100 in PBS, pH 7.5, was added to the reaction solution to suspend the SPA beads completely. The SPA signals were measured in a Wallac Microbeta plate counter (PerkinElmer, Waltham, MA, USA) 30 min later.
# L6 myotubes [3] = experiment: AMPK and ACC phosphorylation (Western blot) in L6 myotubes; format: cell-based
# Excerpt: as §1
# C57BKS db/db mice = experiment: 5-week chronic study in db/db mice; format: in vivo, mouse
# Excerpt: db/db (Jackson Laboratory, BarHarbor, ME, USA) mice were bred at the Shanghai Institute of Materia Medica (Chinese Academy of Sciences, Shanghai, People's Republic of China).The animals were maintained under a 12 hr light-dark cycle with free access to water and food. Animal experiments were approved by the Animal Care and Use Committee, Shanghai Institute of Materia Medica. At 8 weeks of age, male db/db mice were randomly assigned to the various treatment groups by body weight and glucose levels (n = 6-8). The treatment groups for the 5-week chronic study were as follows: vehicle (0.5% methylcellulose), ZLN024 (15 mg/kg) and metformin (250 mg/kg). The treatments were orally administered once daily. The body weights and food intake were measured daily. After 5 weeks of treatment, the mice were killed after a final dose, and the tissues were collected for further analysis. This assay was described previously. For details on primer sequences, see Legend for Table S1. These assays were described previously, [25].
# [4] = target: T2, Recombinant human protein phosphatase-2Cα (PP2Cα) (Homo sapiens, UniProt P35813); experiment: PP2Cα activity with pNPP as substrate; format: biochemical; conditions: varying concentrations of ZLN024
# T2 construct: purchased Abcam (Cambridge, UK)
# T2 sequence (P35813 1-382): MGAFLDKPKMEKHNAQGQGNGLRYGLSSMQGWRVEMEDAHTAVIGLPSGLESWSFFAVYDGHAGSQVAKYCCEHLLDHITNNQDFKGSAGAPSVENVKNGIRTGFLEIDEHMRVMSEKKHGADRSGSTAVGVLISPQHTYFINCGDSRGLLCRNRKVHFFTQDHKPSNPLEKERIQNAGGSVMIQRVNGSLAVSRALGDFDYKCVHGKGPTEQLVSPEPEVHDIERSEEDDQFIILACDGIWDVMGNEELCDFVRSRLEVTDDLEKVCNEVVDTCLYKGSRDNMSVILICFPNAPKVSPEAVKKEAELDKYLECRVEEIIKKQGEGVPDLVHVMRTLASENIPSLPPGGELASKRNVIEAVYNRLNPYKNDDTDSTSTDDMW
# Protocol: Recombinant human protein phosphatase-2Cα (PP2Cα) was obtained from Abcam (Cambridge, UK). PP2Cα activity was measured using pNPP as a substrate. The activity was measured in a SpectraMAX 340 plate reader at 37°C and […] for 120 sec. The assay was carried out in a 96-well plate in a final volume of 100 µl containing 50 mmol/l Tris-HCl, pH 7.6, 2 mmol/l DTT, 10 mmol/l MnCl2 and 10 mmol/l pNPP; the PP2Cα enzyme concentration was 400nmol/l.
# [5] = ZLN024 15 mg/kg/day by gavage, 5 weeks
# T1 sequence (Q13131 10-559 limits assumed): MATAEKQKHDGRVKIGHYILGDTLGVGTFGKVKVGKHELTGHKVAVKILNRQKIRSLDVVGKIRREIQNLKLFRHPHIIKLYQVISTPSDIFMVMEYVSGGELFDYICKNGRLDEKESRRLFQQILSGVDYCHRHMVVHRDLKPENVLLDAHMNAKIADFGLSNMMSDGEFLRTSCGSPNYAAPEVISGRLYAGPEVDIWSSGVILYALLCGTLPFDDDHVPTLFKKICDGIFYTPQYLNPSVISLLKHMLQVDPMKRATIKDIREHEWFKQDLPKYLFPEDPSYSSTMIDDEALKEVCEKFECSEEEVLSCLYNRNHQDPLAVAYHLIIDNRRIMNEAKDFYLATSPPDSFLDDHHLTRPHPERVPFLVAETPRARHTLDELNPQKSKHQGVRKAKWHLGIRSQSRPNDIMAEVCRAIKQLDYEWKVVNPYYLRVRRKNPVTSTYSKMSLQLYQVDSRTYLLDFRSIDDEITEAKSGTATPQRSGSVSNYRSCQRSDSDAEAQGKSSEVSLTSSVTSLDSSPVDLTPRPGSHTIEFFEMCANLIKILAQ
# T1 sequence (O43741 whole entry partner): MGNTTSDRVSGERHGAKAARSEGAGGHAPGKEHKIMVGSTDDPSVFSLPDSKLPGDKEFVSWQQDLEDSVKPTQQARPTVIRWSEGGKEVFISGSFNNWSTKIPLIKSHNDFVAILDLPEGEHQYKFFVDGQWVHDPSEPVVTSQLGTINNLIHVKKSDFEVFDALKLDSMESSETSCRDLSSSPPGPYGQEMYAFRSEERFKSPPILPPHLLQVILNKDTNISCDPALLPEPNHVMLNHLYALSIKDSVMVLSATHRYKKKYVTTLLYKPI
# T1 sequence (P54619 whole entry partner): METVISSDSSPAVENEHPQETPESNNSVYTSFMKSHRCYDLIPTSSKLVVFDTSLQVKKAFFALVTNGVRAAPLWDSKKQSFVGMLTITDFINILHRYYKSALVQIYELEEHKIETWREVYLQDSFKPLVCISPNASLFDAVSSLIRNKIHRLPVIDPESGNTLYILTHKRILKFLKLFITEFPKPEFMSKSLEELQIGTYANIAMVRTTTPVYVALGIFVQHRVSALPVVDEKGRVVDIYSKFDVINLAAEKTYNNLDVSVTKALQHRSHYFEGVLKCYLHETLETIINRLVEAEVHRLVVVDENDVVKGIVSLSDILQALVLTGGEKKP
structure (smiles),measurement,setting,value
Cc1ccc(OCCSc2ncccn2)c(Br)c1 [ZLN024],ADP/ATP ratio,L6 myotubes [1],not affected
same,activation of α1β2γ1 activity,[2],1.7 fold
same,phosphorylation of AMPK and ACC,"L6 myotubes [3]; 3 hr incubation, concentration-dependent",stimulated
same,time to maximal effect on AMPK and ACC phosphorylation,L6 myotubes [3]; ZLN024 20 µmol/l,≤ 30 min
same,time to start of increase of AMPK and ACC phosphorylation,L6 myotubes [3]; ZLN024 20 µmol/l,≤ 15 min
same,ACC phosphorylation in abdominal muscle and liver tissue,"C57BKS db/db mice; 15 mg/kg/day, 5 weeks",increased
same,AMPK phosphorylation in abdominal muscle and liver tissue,"C57BKS db/db mice; 15 mg/kg/day, 5 weeks",not affected
same,body weight compared with the vehicle group,C57BKS db/db mice; [5],no significant alteration
same,food intake compared with the vehicle group,C57BKS db/db mice; [5],no significant alteration
same,reduction of fasting blood glucose,"C57BKS db/db mice; ZLN024 15 mg/kg/day, 4 weeks, fasted 6 hr, not significant with ANOVA",15%
same,"abdominal muscle expression of fatty acid oxidation genes CPT-1, MCAD and LCAD","C57BKS db/db mice; ZLN024 15 mg/kg/day, 5 weeks",significantly upregulated
same,"abdominal muscle expression of mitochondrial biogenesis genes PGC-1α, cyto-c and ATPase","C57BKS db/db mice; ZLN024 15 mg/kg/day, 5 weeks",upregulated
same,decrease of liver total cholesterol levels,"C57BKS db/db mice; ZLN024 15 mg/kg/day, 5 weeks",20%
same,liver expression of PEPCK,"C57BKS db/db mice; ZLN024 15 mg/kg/day, 5 weeks",remained unchanged
same,"liver expression of anabolic genes FAS, mtGPAT and G6Pase","C57BKS db/db mice; ZLN024 15 mg/kg/day, 5 weeks",significantly reduced
same,"liver expression of catabolic genes CPT1, LCAD, PDK4 and AOX","C57BKS db/db mice; ZLN024 15 mg/kg/day, 5 weeks",mildly increased
same,liver/body weight reduction vs vehicle,"C57BKS db/db mice; ZLN024 15 mg/kg/day, 5 weeks",9%
same,reduction of liver triacylglycerol levels,"C57BKS db/db mice; ZLN024 15 mg/kg/day, 5 weeks",approximately 45%
same,liver/body weight (wt/wt),"C57BKS db/db mice; ZLN024 15 mg/kg/day, 5 weeks (vehicle 5.3%)",4.8%
same,reduction in glucose tolerance AUC,"C57BKS db/db mice; ZLN024 15 mg/kg/day, after 4 weeks, i.p. glucose load 1.5 g/kg",approximately 15%
same,effect on PP2Cα activity,[4],no significant inhibition
